Our source for the relative viability values is the supplement of paper PMC10883282.

For the assay, the system named is KHOS-240S. Briefly: relative viability vs DMSO control (72 h) (fraction); higher = more viable cells. The gist of the method:
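Densities for seeding sarcoma cell lines into 384-well plates were set to give 80–90% confluence. After 24 h, 2.5 µl of serially diluted compound from source plates of 10 mM to 0.0002 mM went in, and plates stayed 72 h at 37 °C in 5% CO2 with 0.1% DMSO vehicle and a 5 µM positive control. Percent growth from ATPLite readings, averaged over up to triplicate wells, served as relative viability, rescaled so 1 means full and 0 means none.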

Where a name gives a salt, the structure may show the parent alone. ± gives the standard deviation of the averaged measurements.

`Cc1ccc(NC(=O)c2ccc(CN3CCN(C)CC3)cc2)cc1Nc1nc(-c2cccnc2)cs1` [Masitinib] displayed a relative viability (0.00017 µM) of 1.02 ± 0.03; a relative viability (0.00051 µM) of 1.03 ± 0.021; a relative viability (0.00152 µM) of 1.04 ± 0.017; a relative viability (0.00457 µM) of 1.03 ± 0.011; a relative viability (0.01372 µM) of 1.01 ± 0.051; a relative viability (0.04115 µM) of 1.01 ± 0.047. The relative viability came out at 0.98133 ± 0.00047 (0.1235 µM); 0.862 ± 0.033 (0.3704 µM); 0.758 ± 0.012 (1.111 µM); 0.474 ± 0.028 (3.333 µM); 0.109 ± 0.005 (10 µM).
For `Cc1cnc(Nc2ccc(OCCN3CCCC3)cc2)nc1Nc1cccc(S(=O)(=O)NC(C)(C)C)c1` [Fedratinib], the relative viability by setting is: (0.00017 µM) 1.07 ± 0.046; (0.00051 µM) 1.07 ± 0.047; (0.00152 µM) 1.07 ± 0.033; (0.00457 µM) 1.06 ± 0.023; (0.01372 µM) 1.05 ± 0.058; (0.04115 µM) 1.05 ± 0.094. Moreover, the relative viability runs as follows: (0.1235 µM) 0.989 ± 0.062; (0.3704 µM) 0.801 ± 0.018; (1.111 µM) 0.412 ± 0.031; (3.333 µM) 0.103 ± 0.011; (10 µM) 0.0053 ± 0.0017.
On to `C[C@@H](c1ccc2nccn2c1)n1nnc2ncc(-c3cnn(C)c3)nc21` [Volitinib], for which the relative viability (0.00017 µM) was found to be 1.041 ± 0.0092; the relative viability (0.00051 µM) stood at 1.044 ± 0.0082; the relative viability (0.00152 µM) is 1.07 ± 0.036; the relative viability (0.00457 µM) is 1.07 ± 0.024; the relative viability (0.01372 µM) was 1.077 ± 0.006; the relative viability (0.04115 µM) was found to be 1.101 ± 0.007. Further, the relative viability was found to be 1.09 ± 0.013 (0.1235 µM); 1.078 ± 0.0062 (0.3704 µM); 1.083 ± 0.0058 (1.111 µM); 1.049 ± 0.0046 (3.333 µM); 1.05 ± 0.021 (10 µM).
As to `COc1cccc2c1C(=O)c1c(O)c3c(c(O)c1C2=O)C[C@@](O)(C(=O)CO)C[C@@H]3O[C@H]1C[C@H](N)[C@H](O)[C@H](C)O1` [Doxorubicin Hydrochloride], the relative viability (0.00017 µM) was determined as 1.08 ± 0.041; the relative viability (0.00051 µM) came to 1.05 ± 0.033; the relative viability (0.00152 µM) was 1.05 ± 0.026; the relative viability (0.00457 µM) was found to be 1.07 ± 0.039; the relative viability (0.01372 µM) turned out to be 0.996 ± 0.042; the relative viability (0.04115 µM) came out at 0.654 ± 0.045. For the same molecule, the relative viability (0.1235 µM) stood at 0.459 ± 0.011; the relative viability (0.3704 µM) is 0.241 ± 0.018; the relative viability (1.111 µM) is 0.109 ± 0.0065; the relative viability (3.333 µM) was 0.124 ± 0.021; the relative viability (10 µM) came out at 0.106 ± 0.0059.
As to `CCN1CCN(Cc2ccc(Nc3ncc(F)c(-c4cc(F)c5nc(C)n(C(C)C)c5c4)n3)nc2)CC1` [Abemaciclib], the relative viability was found to be 1.04 ± 0.038 (0.00017 µM); 1.07 ± 0.061 (0.00051 µM); 1.07 ± 0.059 (0.00152 µM); 1.05 ± 0.039 (0.00457 µM); 1.04 ± 0.048 (0.01372 µM); 1 ± 0.077 (0.04115 µM). This molecule also registered a relative viability (0.1235 µM) of 0.892 ± 0.071; a relative viability (0.3704 µM) of 0.834 ± 0.028; a relative viability (1.111 µM) of 0.736 ± 0.024; a relative viability (3.333 µM) of 0.7 ± 0.014; a relative viability (10 µM) of 0.539 ± 0.025.
On to `C=CC(=O)N1CCC([C@@H]2CCNc3c(C(N)=O)c(-c4ccc(Oc5ccccc5)cc4)nn32)CC1` [Zanubrutinib], for which the relative viability is 0.952 ± 0.026 (0.00017 µM); 0.946 ± 0.032 (0.00051 µM); 0.962 ± 0.02 (0.00152 µM); 0.9655 ± 0.007 (0.00457 µM); 0.936 ± 0.043 (0.01372 µM); 0.962 ± 0.021 (0.04115 µM). The relative viability by setting is: (0.1235 µM) 0.957 ± 0.022; (0.3704 µM) 0.935 ± 0.037; (1.111 µM) 0.901 ± 0.047; (3.333 µM) 0.85 ± 0.065; (10 µM) 0.839 ± 0.019.
As to `COc1cc2/c(=N/c3ccc(Br)cc3F)nc[nH]c2cc1OCC1CCN(C)CC1` [Vandetanib], the relative viability by setting is: (0.00017 µM) 1.03 ± 0.078; (0.00051 µM) 1.03 ± 0.048; (0.00152 µM) 1.02 ± 0.042; (0.00457 µM) 1.05 ± 0.048; (0.01372 µM) 1.05 ± 0.06; (0.04115 µM) 1.05 ± 0.045. Besides, the relative viability reads like this: (0.1235 µM) 0.99 ± 0.022; (0.3704 µM) 1.01 ± 0.026; (1.111 µM) 0.908 ± 0.014; (3.333 µM) 0.4145 ± 0.0025; (10 µM) 0.0298 ± 0.0027.
Regarding `C[C@@H]1COCCN1c1cc(-c2ccnn2C)c2ccnc(-c3ccn[nH]3)c2n1`, the relative viability is, setting by setting: (0.00017 µM) 1.04 ± 0.014; (0.00051 µM) 1.06 ± 0.013; (0.00152 µM) 1.07 ± 0.042; (0.00457 µM) 1.04 ± 0.011; (0.01372 µM) 1.01 ± 0.036; (0.04115 µM) 0.783 ± 0.028. Also, the relative viability runs as follows: (0.1235 µM) 0.366 ± 0.051; (0.3704 µM) 0.194 ± 0.026; (1.111 µM) 0.161 ± 0.0077; (3.333 µM) 0.129 ± 0.0056; (10 µM) 0.119 ± 0.0037.
`C[C@]1(O)C[C@@H](c2nc(-c3ccc4ccc(-c5ccccc5)nc4c3)c3c(N)nccn32)C1` [Linsitinib] gave a relative viability (0.00017 µM) of 1.08 ± 0.029; a relative viability (0.00051 µM) of 1.1 ± 0.054; a relative viability (0.00152 µM) of 1.08 ± 0.026; a relative viability (0.00457 µM) of 1.07 ± 0.045; a relative viability (0.01372 µM) of 1.07 ± 0.025; a relative viability (0.04115 µM) of 1.07 ± 0.048. This molecule came in with a relative viability (0.1235 µM) of 0.992 ± 0.018; a relative viability (0.3704 µM) of 0.917 ± 0.018; a relative viability (1.111 µM) of 0.911 ± 0.026; a relative viability (3.333 µM) of 0.845 ± 0.036; a relative viability (10 µM) of 0.56 ± 0.0069.
`COc1c(OCCCN2CCOCC2)ccc2c1N=C(NC(=O)c1cnc(N)nc1)N1CCN=C21` [Copanlisib]: the relative viability reads like this: (0.00017 µM) 1.09 ± 0.041; (0.00051 µM) 1.02 ± 0.048; (0.00152 µM) 1.06 ± 0.013; (0.00457 µM) 0.922 ± 0.094; (0.01372 µM) 0.889 ± 0.098; (0.04115 µM) 0.833 ± 0.09. Moreover, the relative viability (0.1235 µM) worked out at 0.714 ± 0.014; the relative viability (0.3704 µM) turned out to be 0.629 ± 0.022; the relative viability (1.111 µM) worked out at 0.409 ± 0.018; the relative viability (3.333 µM) was found to be 0.217 ± 0.008; the relative viability (10 µM) worked out at 0.188 ± 0.003.
Regarding `CN1CCN(c2ccc3nc(-c4c(N)c5c(F)cccc5[nH]c4=O)[nH]c3c2)CC1` [Dovitinib], the relative viability by setting is: (0.00017 µM) 1.07 ± 0.031; (0.00051 µM) 1.04 ± 0.051; (0.00152 µM) 1.06 ± 0.046; (0.00457 µM) 1.02 ± 0.023; (0.01372 µM) 1.05 ± 0.033; (0.04115 µM) 1.08 ± 0.019. The relative viability (0.1235 µM) amounted to 0.979 ± 0.022; the relative viability (0.3704 µM) turned out to be 0.891 ± 0.059; the relative viability (1.111 µM) came to 0.548 ± 0.014; the relative viability (3.333 µM) is 0.289 ± 0.027; the relative viability (10 µM) was determined as 0.0854 ± 0.0022.
Turning to `COCc1c(-c2cc3cc(C)cc(OC)c3s2)c2c(N)ncnn2c1CN1CCNC(=O)C1` [Rogaratinib], the relative viability is, setting by setting: (0.00017 µM) 1.04 ± 0.015; (0.00051 µM) 1.07 ± 0.028; (0.00152 µM) 1.07 ± 0.046; (0.00457 µM) 1.07 ± 0.061; (0.01372 µM) 1.03 ± 0.011; (0.04115 µM) 0.995 ± 0.053. In addition, the relative viability (0.1235 µM) was found to be 0.9 ± 0.025; the relative viability (0.3704 µM) stood at 0.821 ± 0.019; the relative viability (1.111 µM) was 0.783 ± 0.045; the relative viability (3.333 µM) was 0.671 ± 0.046; the relative viability (10 µM) came out at 0.511 ± 0.036.
`CN1CCC(COc2cnc(-c3cccc(Cn4nc(-c5cccc(C#N)c5)ccc4=O)c3)nc2)CC1` [Tepotinib]: the relative viability is, setting by setting: (0.00017 µM) 1.09 ± 0.051; (0.00051 µM) 1.09 ± 0.014; (0.00152 µM) 1.1 ± 0.043; (0.00457 µM) 1.09 ± 0.035; (0.01372 µM) 1.04 ± 0.019; (0.04115 µM) 1.08 ± 0.045. The relative viability (0.1235 µM) was 1.04 ± 0.045; the relative viability (0.3704 µM) was found to be 1.02 ± 0.031; the relative viability (1.111 µM) was determined as 1 ± 0.017; the relative viability (3.333 µM) was 0.94 ± 0.095; the relative viability (10 µM) turned out to be 0.593 ± 0.022.
